# Measurements reported in BindingDB's records for patent US20230293517 (Adorx Therapeutics, 2023).
# What was measured:
# Assay in all cases: Adenosine Receptor Time-Resolved Fluorescence Resonance Energy Transfer (TRFRET) Binding Assay
# [1] = target: T1, Adenosine receptor A1 (Homo sapiens, UniProt P30542)
# T1 sequence (P30542 whole entry): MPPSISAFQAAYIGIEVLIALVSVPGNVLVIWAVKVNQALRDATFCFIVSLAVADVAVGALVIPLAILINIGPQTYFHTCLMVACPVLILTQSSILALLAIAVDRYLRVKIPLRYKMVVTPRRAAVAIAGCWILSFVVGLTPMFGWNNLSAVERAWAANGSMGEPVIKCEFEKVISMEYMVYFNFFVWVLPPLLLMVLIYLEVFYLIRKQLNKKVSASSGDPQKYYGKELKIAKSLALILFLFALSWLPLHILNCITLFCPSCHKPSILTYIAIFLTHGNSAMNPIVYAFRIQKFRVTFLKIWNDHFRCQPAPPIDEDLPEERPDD
# Experimental: (§1) All FRET binding experiments were conducted at room temperature in white 384-well plates, in assay binding buffer containing 1×LabMed (Cisbio, France), 100 μg/mL saponin, 1% DMSO and 0.02% pluronic acid. Binding of the fluorescently labelled Adenosine receptor antagonist XAC (CA200645, FRET acceptor) to terbium-labelled A1, A2a, A2b and A3 adenosine receptors (FRET donors) was detected by time-resolved FRET due to the close proximity of the donor and acceptor in a binding event. To investigate the ability of unlabelled test compounds to bind to Adenosine A1, A2a, A2b and A3 receptors, dose response curves were constructed that determined the ability of a range of concentrations to inhibit the binding of 30 nM CA200645 to the A2b receptor and 100 nM CA200645 to the A1, A2a, and A3 receptor. Serial dilution (1:3 dilutions) of test compounds in neat DMSO and transfer of a 400 nL sample of test compound into the assay plate was carried out using the Mosquito (TTP Labtech, UK). The compound samples were incubated for 2 hours at room temperature with a fixed concentration of CA200645 defined for each receptor (see above) and CHO cell membranes containing the human Adenosine A1 (0.5 μg/well), A2a (0.3 μg/well), A2b (1 μg/well) or A3 (1 μg/well) receptor in 40 μL of assay buffer. Total and non-specific binding of CA200645 was determined in the absence and presence of 10 μM XAC, respectively. Following 2 hours incubation, the level of CA200645 binding was detected on a Pherastar FSX (BMG Labtech, Germany) using standard TR-FRET settings. […] FRET ratios were obtained by multiplying the acceptor/donor ratio value by 10,000. Specific binding was determined by subtracting the non-specific binding FRET ratio from the total binding FRET ratio.
# [2] = target: Adenosine receptor A2a (Homo sapiens, UniProt P29274)
# Adenosine receptor A2a, sequence (P29274 whole entry): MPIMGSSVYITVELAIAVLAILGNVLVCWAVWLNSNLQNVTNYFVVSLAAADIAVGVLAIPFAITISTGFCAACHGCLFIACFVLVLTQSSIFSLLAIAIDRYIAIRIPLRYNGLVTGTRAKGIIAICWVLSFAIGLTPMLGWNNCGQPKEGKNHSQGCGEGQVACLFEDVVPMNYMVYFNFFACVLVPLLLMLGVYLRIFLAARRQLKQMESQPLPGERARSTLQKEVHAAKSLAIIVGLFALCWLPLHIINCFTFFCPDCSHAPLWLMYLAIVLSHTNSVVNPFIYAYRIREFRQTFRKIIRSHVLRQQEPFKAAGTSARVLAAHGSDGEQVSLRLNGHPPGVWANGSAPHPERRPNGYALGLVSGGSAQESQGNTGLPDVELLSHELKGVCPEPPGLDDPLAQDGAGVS
# Experimental: as §1
# [3] = target: T2, Adenosine receptor A2b (Homo sapiens, UniProt P29275)
# T2 sequence (P29275 whole entry): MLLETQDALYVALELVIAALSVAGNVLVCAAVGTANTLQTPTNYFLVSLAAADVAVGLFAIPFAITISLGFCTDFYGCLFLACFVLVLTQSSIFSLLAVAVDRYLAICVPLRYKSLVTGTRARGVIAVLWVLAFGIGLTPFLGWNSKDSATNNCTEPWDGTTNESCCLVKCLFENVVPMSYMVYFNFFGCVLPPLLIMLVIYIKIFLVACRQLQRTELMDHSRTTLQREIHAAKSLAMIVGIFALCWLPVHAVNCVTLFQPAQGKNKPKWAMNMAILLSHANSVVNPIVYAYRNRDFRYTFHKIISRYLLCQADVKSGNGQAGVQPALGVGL
# Experimental: as §1
# [4] = target: T3, Adenosine receptor A3 (Homo sapiens, UniProt P0DMS8)
# T3 sequence (P0DMS8 whole entry): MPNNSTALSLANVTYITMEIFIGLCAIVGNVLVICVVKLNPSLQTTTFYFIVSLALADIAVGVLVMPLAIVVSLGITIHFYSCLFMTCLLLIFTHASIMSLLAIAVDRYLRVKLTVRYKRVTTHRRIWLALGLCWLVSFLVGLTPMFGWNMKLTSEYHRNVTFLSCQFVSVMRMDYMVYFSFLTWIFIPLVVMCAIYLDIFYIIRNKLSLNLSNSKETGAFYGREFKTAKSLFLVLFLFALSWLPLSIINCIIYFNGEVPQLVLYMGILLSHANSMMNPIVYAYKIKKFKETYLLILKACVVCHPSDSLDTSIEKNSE
# Experimental: as §1
structure (smiles),measurement,setting,value
"Cc1cc(-c2sc(NC(=O)N3CCOC(C(N)=O)C3)nc2-c2cccc(C#N)c2)cc(C)n1 (configuration not stated) [US20230293517, Example 4.14]",Ki,[1],67 nM
same,Ki,[2],2 nM
same,Ki,[3],2.4 nM
same,Ki,[4],200 nM
"Cc1cc(-c2sc(NC(=O)N3CCC4(CC3)CNC(=O)N4C)nc2-c2cccc(C#N)c2)cc(C)n1 [US20230293517, Example 6.51]",Ki,[1],120 nM
same,Ki,[3],1.2 nM
same,Ki,[4],318 nM
"Cc1cc(-c2sc(NC(=O)N3CC4(CCOCC4)C3)nc2-c2cccc(C#N)c2)cc(C)n1 [US20230293517, Example 6.54]",Ki,[1],53 nM
same,Ki,[2],0.38 nM
same,Ki,[3],1.9 nM
same,Ki,[4],268 nM
"Cc1cc(-c2sc(NC(=O)N3CC4(CNC(=O)C4)C3)nc2-c2cccc(C#N)c2)cc(C)n1 [US20230293517, Example 6.55]",Ki,[1],86 nM
same,Ki,[2],0.6 nM
same,Ki,[3],2.4 nM
same,Ki,[4],273 nM
"Cc1cc(-c2sc(NC(=O)N3CCC4(CC3)CNC(=O)O4)nc2-c2cccc(C#N)c2)cc(C)n1 [US20230293517, Example 6.56]",Ki,[1],75 nM
same,Ki,[2],0.59 nM
same,Ki,[3],1.2 nM
same,Ki,[4],368 nM
"Cc1cc(-c2sc(NC(=O)N3CC4(CNC(=O)N4)C3)nc2-c2cccc(C#N)c2)cc(C)n1 [US20230293517, Example 6.57]",Ki,[1],32 nM
same,Ki,[2],0.88 nM
same,Ki,[3],1.3 nM
same,Ki,[4],212 nM
"Cc1cc(-c2sc(NC(=O)N3CCC4(CCCC(=O)N4)CC3)nc2-c2cccc(C#N)c2)cc(C)n1 [US20230293517, Example 6.58]",Ki,[1],559 nM
same,Ki,[2],2.27 nM
same,Ki,[3],7.8 nM
same,Ki,[4],848 nM
"Cc1cc(-c2sc(NC(=O)N3CCC(C)(C#N)CC3)nc2-c2cccc(C#N)c2)c(F)c(C)n1 [US20230293517, Example 6.66]",Ki,[1],37 nM
same,Ki,[2],0.43 nM
same,Ki,[3],0.6 nM
same,Ki,[4],1210 nM
"Cc1cc(-c2sc(NC(=O)N3CC(C)(O)C3)nc2-c2cccc(C#N)c2)c(F)c(C)n1 [US20230293517, Example 6.67]",Ki,[1],22 nM
same,Ki,[2],2.06 nM
same,Ki,[3],1 nM
same,Ki,[4],201 nM
"Cc1cc(-c2sc(NC(=O)N3CC(C)(C#N)C3)nc2-c2cccc(C#N)c2)c(F)c(C)n1 [US20230293517, Example 6.68]",Ki,[1],30 nM
same,Ki,[2],0.36 nM
same,Ki,[3],0.6 nM
same,Ki,[4],217 nM
"Cc1cc(-c2sc(NC(=O)N3CCC4(CC3)CNC4=O)nc2-c2cccc(C#N)c2)c(F)c(C)n1 [US20230293517, Example 6.69]",Ki,[1],124 nM
same,Ki,[2],0.94 nM
same,Ki,[3],1.4 nM
same,Ki,[4],156 nM
"Cc1cc(-c2sc(NC(=O)N3CCC[C@H]3CO)nc2-c2cccc(C#N)c2)cc(C)n1 [US20230293517, Example 6.71]",Ki,[1],110 nM
same,Ki,[2],3.45 nM
same,Ki,[3],4.2 nM
same,Ki,[4],62 nM
"Cc1cc(-c2sc(NC(=O)N3CC[C@@H]3C)nc2-c2cccc(C#N)c2)cc(C)n1 [US20230293517, Example 6.72]",Ki,[1],3 nM
same,Ki,[2],1.12 nM
same,Ki,[3],1.2 nM
same,Ki,[4],94 nM
"Cc1cc(-c2sc(NC(=O)N3CC[C@H]3CO)nc2-c2cccc(C#N)c2)cc(C)n1 [US20230293517, Example 6.73]",Ki,[1],92 nM
same,Ki,[2],2.51 nM
same,Ki,[3],3.7 nM
same,Ki,[4],165 nM
"Cc1cc(-c2sc(NC(=O)N3CCOC[C@@H]3CO)nc2-c2cccc(C#N)c2)cc(C)n1 [US20230293517, Example 6.76]",Ki,[1],39 nM
same,Ki,[2],12.9 nM
same,Ki,[3],21.7 nM
same,Ki,[4],321 nM
"Cc1cc(-c2sc(NC(=O)N3CC4(COC4)C3)nc2-c2cccc(C#N)c2C)cc(C)n1 [US20230293517, Example 6.79]",Ki,[1],177 nM
same,Ki,[2],1.5 nM
same,Ki,[3],6 nM
same,Ki,[4],537 nM
"Cc1cc(-c2sc(NC(=O)N3CC[C@@H]3CO)nc2-c2cccc(C#N)c2)cc(C)n1 [US20230293517, Example 6.91]",Ki,[1],20 nM
same,Ki,[2],1.66 nM
same,Ki,[3],5.3 nM
same,Ki,[4],162 nM
